Publication PMC4490028 (Cancer research, 2015)

Key:
[1] = format: in vivo, mouse; settings: oral SG 10 mg/kg
[2] = cited from earlier work
Oatp1a/1b;Abcc2 = settings: oral sorafenib 10 mg/kg; Oatp1a/1b;Abcc2(−/−) mice
rat Abcc2 = rat Abcc2 (Rattus norvegicus, UniProt Q63120); test: In vitro vesicular transport, inside-out Sf9 vesicles expressing rat Abcc2; settings: 5-min incubation, ATP 4 mM
Abcc3 = test: Plasma and liver pharmacokinetics after oral sorafenib in Abcc3; format: in vivo, mouse; settings: oral sorafenib 10 mg/kg; Abcc3(−/−) mice
Oatp1a/1b;Abcc2;Abcc3 = settings: oral sorafenib 10 mg/kg; Oatp1a/1b;Abcc2;Abcc3(−/−) mice
human ABCC2 = human ABCC2 (Homo sapiens, UniProt Q92887); test: In vitro vesicular transport, inside-out Sf9 vesicles expressing human ABCC2
Abcc2 [3] = test: Pharmacokinetics; settings: after oral sorafenib 10 mg/kg
[4] = system: mouse intestinal β-glucuronidases; test: Ex vivo cecal incubations of SG; format: in vitro ADME; settings: SG 2 µM, 6-hour period
[5] = Sorafenib plasma concentrations in FVB wildtype mice after oral sorafenib; settings: sorafenib 10 mg/kg oral
Oatp1a/1b = test: Plasma and liver pharmacokinetics after oral sorafenib in Oatp1a/1b; format: in vivo, mouse; settings: oral sorafenib 10 mg/kg; Oatp1a/1b(−/−) mice
Abcc2 [6] = test: Pharmacokinetics
Oatp1a/1b;Abcc3 = test: Plasma and liver pharmacokinetics after oral sorafenib in Oatp1a/1b; format: in vivo, mouse; settings: oral sorafenib 10 mg/kg; Oatp1a/1b;Abcc3(−/−) mice
human ABCC3 = human ABCC3 (Homo sapiens, UniProt O15438); test: In vitro vesicular transport, inside-out Sf9 vesicles expressing human ABCC3; format: in vitro ADME
human ABCC4 = molecular target: T1, human ABCC4 (Homo sapiens, UniProt O15439); test: In vitro vesicular transport, inside-out Sf9 vesicles expressing human ABCC4
T1 sequence (O15439 1-1325): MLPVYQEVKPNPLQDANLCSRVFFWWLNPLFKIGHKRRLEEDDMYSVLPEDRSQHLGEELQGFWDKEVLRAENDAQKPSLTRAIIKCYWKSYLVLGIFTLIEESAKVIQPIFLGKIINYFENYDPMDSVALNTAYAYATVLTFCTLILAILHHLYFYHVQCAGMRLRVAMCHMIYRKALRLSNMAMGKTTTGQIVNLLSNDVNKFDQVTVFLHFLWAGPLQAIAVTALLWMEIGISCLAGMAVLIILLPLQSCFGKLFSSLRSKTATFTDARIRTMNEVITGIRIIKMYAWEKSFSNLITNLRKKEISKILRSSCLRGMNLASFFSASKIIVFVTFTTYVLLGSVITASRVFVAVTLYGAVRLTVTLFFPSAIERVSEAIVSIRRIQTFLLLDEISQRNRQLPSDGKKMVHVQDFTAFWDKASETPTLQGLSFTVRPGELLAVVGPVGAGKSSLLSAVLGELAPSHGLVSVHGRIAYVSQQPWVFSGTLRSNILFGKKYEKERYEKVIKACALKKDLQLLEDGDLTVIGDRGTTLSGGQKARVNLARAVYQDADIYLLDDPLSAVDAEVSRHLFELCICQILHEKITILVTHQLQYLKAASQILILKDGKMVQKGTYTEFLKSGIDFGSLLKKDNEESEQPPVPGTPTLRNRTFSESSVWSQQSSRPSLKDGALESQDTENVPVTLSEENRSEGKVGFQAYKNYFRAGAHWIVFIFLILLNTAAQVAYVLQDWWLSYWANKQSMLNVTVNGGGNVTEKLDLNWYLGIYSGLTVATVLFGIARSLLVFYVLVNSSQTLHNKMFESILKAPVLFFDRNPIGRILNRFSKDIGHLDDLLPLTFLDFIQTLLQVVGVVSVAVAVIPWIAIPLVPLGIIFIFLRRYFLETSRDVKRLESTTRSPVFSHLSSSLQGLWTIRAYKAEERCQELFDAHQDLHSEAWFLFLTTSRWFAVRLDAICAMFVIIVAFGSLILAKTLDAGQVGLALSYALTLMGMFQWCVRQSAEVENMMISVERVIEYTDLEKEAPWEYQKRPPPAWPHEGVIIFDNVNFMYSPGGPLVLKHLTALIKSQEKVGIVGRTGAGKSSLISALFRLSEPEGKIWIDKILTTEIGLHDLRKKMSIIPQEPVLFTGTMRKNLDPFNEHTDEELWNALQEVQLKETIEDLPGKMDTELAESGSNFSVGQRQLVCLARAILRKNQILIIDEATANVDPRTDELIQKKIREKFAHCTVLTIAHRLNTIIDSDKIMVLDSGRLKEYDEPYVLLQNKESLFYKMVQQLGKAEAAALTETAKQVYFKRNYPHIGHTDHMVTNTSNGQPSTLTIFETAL

mouse Abcc2 = mouse Abcc2 (Mus musculus, UniProt Q8VI47); test: In vitro vesicular transport, inside-out Sf9 vesicles expressing mouse Abcc2; settings: SG 10 µM, 5-min incubation, ATP 4 mM
Abcc4 = test: Plasma and liver pharmacokinetics after oral sorafenib in Abcc4; settings: after oral sorafenib 10 mg/kg; Abcc4(−/−) mice
Abcc3;Abcc4 = test: Plasma and liver pharmacokinetics after oral sorafenib in Abcc3; settings: after oral sorafenib 10 mg/kg; Abcc3;Abcc4(−/−) mice
[7] = rifampin 100 µM, SG 10 µM, 5 min
[8] = SG 10 µM, 5-min incubation, ATP 4 mM
[9] = increasing SG concentrations, 5 min, ATP 4 mM
[10] = read-out: Km of SG transport, increasing SG concentrations, 5 min, ATP 4 mM

Chain of human ABCC3 (O15438 whole entry): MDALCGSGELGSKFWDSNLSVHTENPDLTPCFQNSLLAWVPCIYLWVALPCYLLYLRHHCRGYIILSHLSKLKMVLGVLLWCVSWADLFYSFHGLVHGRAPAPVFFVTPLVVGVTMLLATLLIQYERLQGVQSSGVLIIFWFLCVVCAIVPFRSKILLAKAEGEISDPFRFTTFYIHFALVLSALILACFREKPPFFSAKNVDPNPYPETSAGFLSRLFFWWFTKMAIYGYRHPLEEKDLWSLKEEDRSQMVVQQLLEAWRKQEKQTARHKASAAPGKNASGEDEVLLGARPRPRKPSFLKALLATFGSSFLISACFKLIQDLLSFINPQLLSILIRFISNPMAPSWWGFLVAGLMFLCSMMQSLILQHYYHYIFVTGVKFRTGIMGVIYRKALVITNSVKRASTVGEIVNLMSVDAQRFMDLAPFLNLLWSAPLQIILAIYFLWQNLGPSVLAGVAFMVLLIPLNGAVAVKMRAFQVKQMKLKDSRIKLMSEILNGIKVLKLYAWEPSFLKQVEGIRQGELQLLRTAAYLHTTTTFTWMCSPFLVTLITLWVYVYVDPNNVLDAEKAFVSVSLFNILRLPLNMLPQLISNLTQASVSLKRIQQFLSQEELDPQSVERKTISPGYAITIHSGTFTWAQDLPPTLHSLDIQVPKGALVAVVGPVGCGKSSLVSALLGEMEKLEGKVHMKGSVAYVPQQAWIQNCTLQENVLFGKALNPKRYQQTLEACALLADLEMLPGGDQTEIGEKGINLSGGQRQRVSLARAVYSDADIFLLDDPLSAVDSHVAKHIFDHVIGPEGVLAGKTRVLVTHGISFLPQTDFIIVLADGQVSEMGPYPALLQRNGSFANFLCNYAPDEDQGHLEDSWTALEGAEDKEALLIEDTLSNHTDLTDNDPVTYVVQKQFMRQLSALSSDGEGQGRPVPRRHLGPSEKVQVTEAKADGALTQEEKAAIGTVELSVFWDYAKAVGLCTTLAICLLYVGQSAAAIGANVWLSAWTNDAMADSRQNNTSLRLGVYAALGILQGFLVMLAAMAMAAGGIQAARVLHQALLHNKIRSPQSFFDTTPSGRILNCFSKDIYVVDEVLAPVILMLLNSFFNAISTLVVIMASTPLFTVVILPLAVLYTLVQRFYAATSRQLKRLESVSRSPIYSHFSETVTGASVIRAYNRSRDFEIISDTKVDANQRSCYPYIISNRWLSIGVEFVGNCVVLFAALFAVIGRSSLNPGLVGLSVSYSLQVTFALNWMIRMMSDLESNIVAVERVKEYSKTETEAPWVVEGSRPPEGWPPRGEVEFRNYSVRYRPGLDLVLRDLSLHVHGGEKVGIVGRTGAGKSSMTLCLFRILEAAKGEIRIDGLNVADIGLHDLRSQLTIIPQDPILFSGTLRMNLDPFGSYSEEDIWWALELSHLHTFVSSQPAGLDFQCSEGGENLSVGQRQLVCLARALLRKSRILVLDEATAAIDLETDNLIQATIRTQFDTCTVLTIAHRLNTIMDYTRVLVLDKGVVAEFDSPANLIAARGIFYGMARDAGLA
Chain of human ABCC2 (Q92887 whole entry): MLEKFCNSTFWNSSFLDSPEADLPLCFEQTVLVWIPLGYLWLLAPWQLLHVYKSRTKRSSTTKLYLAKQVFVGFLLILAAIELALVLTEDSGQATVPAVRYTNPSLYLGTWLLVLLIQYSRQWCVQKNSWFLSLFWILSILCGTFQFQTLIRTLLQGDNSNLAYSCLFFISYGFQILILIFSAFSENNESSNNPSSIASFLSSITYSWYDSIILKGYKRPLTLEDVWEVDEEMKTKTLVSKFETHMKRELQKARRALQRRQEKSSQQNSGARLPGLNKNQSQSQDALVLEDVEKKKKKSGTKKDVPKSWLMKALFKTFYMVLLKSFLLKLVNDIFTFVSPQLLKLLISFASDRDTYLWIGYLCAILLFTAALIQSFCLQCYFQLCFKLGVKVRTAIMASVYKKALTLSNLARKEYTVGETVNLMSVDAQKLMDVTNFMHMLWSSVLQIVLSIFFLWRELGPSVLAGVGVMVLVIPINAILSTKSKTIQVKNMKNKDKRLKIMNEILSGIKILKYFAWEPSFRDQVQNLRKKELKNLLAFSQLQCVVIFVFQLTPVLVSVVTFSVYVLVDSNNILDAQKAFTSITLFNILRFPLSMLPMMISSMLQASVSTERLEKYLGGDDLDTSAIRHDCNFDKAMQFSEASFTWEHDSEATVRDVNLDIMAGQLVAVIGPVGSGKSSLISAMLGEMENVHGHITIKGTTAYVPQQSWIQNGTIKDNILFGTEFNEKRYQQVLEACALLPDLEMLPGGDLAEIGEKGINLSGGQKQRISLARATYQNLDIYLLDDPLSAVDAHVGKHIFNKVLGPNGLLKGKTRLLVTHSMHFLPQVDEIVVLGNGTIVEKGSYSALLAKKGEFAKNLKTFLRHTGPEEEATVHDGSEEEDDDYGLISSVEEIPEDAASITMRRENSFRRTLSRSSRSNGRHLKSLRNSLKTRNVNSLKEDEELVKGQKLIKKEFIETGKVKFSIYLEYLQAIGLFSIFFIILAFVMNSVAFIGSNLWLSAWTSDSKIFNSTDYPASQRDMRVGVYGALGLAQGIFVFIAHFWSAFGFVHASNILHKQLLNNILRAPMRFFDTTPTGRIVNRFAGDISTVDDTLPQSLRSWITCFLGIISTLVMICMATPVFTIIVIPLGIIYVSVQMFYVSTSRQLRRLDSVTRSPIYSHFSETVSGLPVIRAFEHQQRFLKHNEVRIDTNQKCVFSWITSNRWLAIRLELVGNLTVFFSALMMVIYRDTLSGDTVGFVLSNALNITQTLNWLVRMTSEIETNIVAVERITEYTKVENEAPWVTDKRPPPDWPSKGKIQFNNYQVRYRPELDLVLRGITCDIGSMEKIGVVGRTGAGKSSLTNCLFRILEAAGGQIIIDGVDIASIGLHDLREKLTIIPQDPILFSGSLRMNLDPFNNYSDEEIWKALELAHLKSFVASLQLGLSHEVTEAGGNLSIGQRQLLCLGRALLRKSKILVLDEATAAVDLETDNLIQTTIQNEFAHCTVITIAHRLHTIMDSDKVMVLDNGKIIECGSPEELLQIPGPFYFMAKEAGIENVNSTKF
Chain of rat Abcc2 (Q63120 whole entry): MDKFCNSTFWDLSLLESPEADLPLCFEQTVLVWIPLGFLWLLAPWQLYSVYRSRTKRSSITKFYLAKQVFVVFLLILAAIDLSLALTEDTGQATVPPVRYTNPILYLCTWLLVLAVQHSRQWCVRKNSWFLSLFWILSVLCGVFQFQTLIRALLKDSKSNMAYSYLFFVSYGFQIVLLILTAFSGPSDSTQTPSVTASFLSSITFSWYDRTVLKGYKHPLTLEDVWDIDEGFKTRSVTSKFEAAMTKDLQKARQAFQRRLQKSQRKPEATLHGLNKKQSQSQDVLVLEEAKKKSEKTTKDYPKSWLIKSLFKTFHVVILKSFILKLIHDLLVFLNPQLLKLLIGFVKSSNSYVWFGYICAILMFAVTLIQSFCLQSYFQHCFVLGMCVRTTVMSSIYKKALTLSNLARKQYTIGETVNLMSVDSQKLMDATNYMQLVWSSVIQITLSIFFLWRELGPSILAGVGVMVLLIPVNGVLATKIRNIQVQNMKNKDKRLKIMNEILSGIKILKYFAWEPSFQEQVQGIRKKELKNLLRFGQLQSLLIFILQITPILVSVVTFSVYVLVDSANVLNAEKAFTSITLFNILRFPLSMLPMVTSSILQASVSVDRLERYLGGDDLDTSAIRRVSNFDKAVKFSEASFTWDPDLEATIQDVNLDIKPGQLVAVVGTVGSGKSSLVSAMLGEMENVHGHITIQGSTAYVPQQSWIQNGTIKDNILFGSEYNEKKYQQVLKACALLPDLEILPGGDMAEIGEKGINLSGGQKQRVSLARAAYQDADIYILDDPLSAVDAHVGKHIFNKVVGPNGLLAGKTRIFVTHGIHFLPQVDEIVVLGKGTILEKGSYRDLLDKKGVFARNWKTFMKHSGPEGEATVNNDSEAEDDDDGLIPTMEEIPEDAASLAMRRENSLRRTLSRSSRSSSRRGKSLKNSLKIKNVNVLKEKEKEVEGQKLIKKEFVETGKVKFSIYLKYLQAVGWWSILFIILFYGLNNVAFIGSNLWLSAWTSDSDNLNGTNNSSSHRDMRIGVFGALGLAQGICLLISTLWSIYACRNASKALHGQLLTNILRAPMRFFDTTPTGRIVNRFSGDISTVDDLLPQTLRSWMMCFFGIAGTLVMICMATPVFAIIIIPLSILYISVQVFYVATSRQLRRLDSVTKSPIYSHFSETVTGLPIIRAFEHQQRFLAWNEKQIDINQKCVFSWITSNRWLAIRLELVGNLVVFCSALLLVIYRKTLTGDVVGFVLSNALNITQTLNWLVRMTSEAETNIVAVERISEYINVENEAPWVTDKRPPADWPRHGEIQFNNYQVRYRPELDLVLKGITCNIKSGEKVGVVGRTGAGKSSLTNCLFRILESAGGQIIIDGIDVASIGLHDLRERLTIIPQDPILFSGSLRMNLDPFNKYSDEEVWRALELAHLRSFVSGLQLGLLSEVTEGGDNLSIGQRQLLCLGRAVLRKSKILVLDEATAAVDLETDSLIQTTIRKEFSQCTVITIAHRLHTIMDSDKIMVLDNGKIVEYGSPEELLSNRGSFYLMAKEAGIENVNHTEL

CNC(=O)c1cc(Oc2ccc(NC(=O)Nc3ccc(Cl)c(C(F)(F)F)c3)cc2)ccn1 [sorafenib]
time until sorafenib was detected in plasma after SG administration ([1]; initial study): 8 h | sorafenib peak levels in plasma of vehicle-pretreated mice ([1]; at 8 hours after SG administration): 226 to 897 ng/mL | sorafenib levels in plasma of neomycin-pretreated mice ([1]; neomycin 200 mg/kg twice daily for 5 days, 8 to 24 hours): below the limit of quantification | time of sorafenib peak levels after SG administration ([1]; vehicle-pretreated mice): 8 h | average sorafenib plasma steady-state concentrations ([2]; adults and children treated at 400 mg or 200 mg/m^2 twice daily): 10 µM | decrease of systemic exposure to sorafenib by neomycin treatment ([2]; neomycin treatment in humans): more than 50% | plasma and liver levels of sorafenib (Oatp1a/1b;Abcc2): not substantially altered | transport of sorafenib (rat Abcc2; sorafenib 10 µM): weakly | liver levels of sorafenib versus wildtype (Abcc3): similar | plasma levels of sorafenib versus wildtype (Abcc3): not substantially altered | plasma and liver levels of sorafenib (Oatp1a/1b;Abcc2;Abcc3): not substantially altered | sorafenib uptake relative to control vesicles (human ABCC2; sorafenib 10 µM, 5-min incubation, ATP 4 mM): moderately increased | increase in plasma levels in Abcc2(−/−) versus wildtype rats (Abcc2 [3]): ~ 2 fold | sorafenib levels formed from SG in crude suspension of cecal content [4]: corresponding increase | sorafenib plasma steady-state concentrations [5]: 6 to 10 µM | liver levels of sorafenib versus wildtype (Oatp1a/1b): similar | plasma levels of sorafenib versus wildtype (Oatp1a/1b): not substantially altered | plasma sorafenib exposure, lower than wildtype (Oatp1a/1b): ~ 25% | biliary output of sorafenib, Abcc2(−/−) compared to wildtype mice (Abcc2 [6]; oral sorafenib 10 mg/kg): not associated with altered | liver uptake of sorafenib, Abcc2(−/−) compared to wildtype mice (Abcc2 [6]; oral sorafenib 10 mg/kg): not associated with altered | plasma disposition of sorafenib, Abcc2(−/−) compared to wildtype mice (Abcc2 [6]; oral sorafenib 10 mg/kg): not associated with altered | liver levels of sorafenib versus wildtype (Oatp1a/1b;Abcc3): similar | plasma levels of sorafenib versus wildtype (Oatp1a/1b;Abcc3): not substantially altered

CNC(=O)c1cc(Oc2ccc(NC(=O)Nc3ccc(Cl)c(C(F)(F)F)c3)cc2)cc[n+]1[O-] [sorafenib-N-oxide]
increase in plasma levels in Abcc2(−/−) versus wildtype rats (Abcc2 [3]): ~ 2 fold

CO[C@H]1/C=C/O[C@@]2(C)Oc3c(C)c(O)c4c(O)c(c(/C=N/N5CCN(C)CC5)c(O)c4c3C2=O)NC(=O)/C(C)=C\C=C\[C@H](C)[C@H](O)[C@@H](C)[C@@H](O)[C@@H](C)[C@H](OC(C)=O)[C@@H]1C [rifampin]
inhibition of ABCC3-mediated SG uptake (human ABCC3; [7]): sensitive to inhibition | inhibition of ABCC4-mediated SG uptake (human ABCC4; [7]): sensitive to inhibition | inhibition of ABCC2-mediated SG uptake (human ABCC2; [7]): sensitive to inhibition

sorafenib-glucuronide [SG]
uptake of SG relative to control vesicles (mouse Abcc2): efficiently increased | concentrations of SG in plasma and liver, effect of Abcc4 deficiency (Abcc4): not substantially affected | uptake of SG relative to control vesicles (human ABCC3; [8]): efficiently increased | transport efficiency, lower than that observed for ABCC2 (human ABCC3; SG transport): about 7 fold | Vmax of SG transport (human ABCC3; [9]): 196 ± 44 pmol/min/mg | Km (human ABCC3; [10]): 186 ± 72 µM | uptake of SG relative to control vesicles (human ABCC4; [8]): efficiently increased | transport efficiency, lower than that observed for ABCC2 (human ABCC4; SG transport): about 7 fold | Vmax of SG transport (human ABCC4; [9]): 221 ± 11 pmol/min/mg | Km (human ABCC4; [10]): 146 ± 14 µM | uptake of SG relative to control vesicles (rat Abcc2; SG 10 µM): efficiently increased | uptake of SG relative to control vesicles (human ABCC2; [8]): efficiently increased | maximal velocity (Vmax) of SG transport (human ABCC2; [9]): 155 ± 11 pmol/min/mg | SG in bile of wildtype or Abcc2(−/−) rats (Abcc2 [3]): not detected | SG in plasma of wildtype or Abcc2(−/−) rats (Abcc2 [3]): not detected | concentrations of SG in plasma and liver, effect of Abcc4 deficiency (Abcc3;Abcc4): not substantially affected | SG liver-to-plasma ratio in Abcc2(−/−) versus wildtype mice (Abcc2 [6]; after oral sorafenib 10 mg/kg): decreased | increase in SG liver concentrations in Abcc2(−/−) versus wildtype mice (Abcc2 [6]; after oral sorafenib 10 mg/kg): ~ 3 fold | increase of plasma levels of SG in Abcc2(−/−) versus wildtype mice (Abcc2 [6]; after oral sorafenib 10 mg/kg): ~ 350 fold | reduction of biliary output of SG in Abcc2(−/−) versus wildtype mice (Abcc2 [6]; after oral sorafenib 10 mg/kg, bile collected for 2 hours): ~ 12 fold | urinary excretion (Abcc2 [6]; after oral sorafenib 10 mg/kg, irrespective of Abcc2 status): minor route of elimination
